The values that follow come from PubChem BioAssay AID977621 (Broad Institute, 2014).

Inconclusive results are not listed. Active and inactive are the calls of the source.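 The calls were made as follows: active = Wild-type ribosome reporter drop at least double the humanized mutant ribosome reporter drop, growth loss under a set limit; inconclusive = no clear call, values can overlap the other calls; inactive = the rest.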

This assay deals with E. coli wild-type GFP strain growth, fluorescence, 24 h. In words: growth inhibition of wild-type GFP E. coli, dose response, H69 mutant RFP, cherry-pick (AID 977621).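 Also: wild-type GFP and H69 mutant RFP strains grown together 50/50 in each well.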
[1] abbreviates: E. coli mixed culture, 24 h, measured here: total growth OD600, test 2.

For the compound `Cc1cc(C)c(OCCNC(=O)c2ccccc2Sc2ccccc2C#N)c(C)c1`, the AC50 is > 100 µM (inactive). Further, the AC50 (E. coli mixed culture, 24 h, measured here: total growth OD600, test 1) amounted to 5.7 µM.

Take `CCN(c1ccccc1)S(=O)(=O)c1ccc(Cl)c(NC(=O)CSc2n[nH]c(N)n2)c1`: the AC50 was > 100 µM (inactive). On the same count and under the same terms, the result for `Cc1ccc(Oc2ccc(S(=O)(=O)N3CCOCC3)cc2C(N)=O)cc1C` reads > 100 µM (inactive). Consider `O=[N+]([O-])c1ccc(N2CCOCC2)c2c1no[n+]2[O-]`, for which the AC50 is > 100 µM (inactive).

`CN(c1ccc(C(=O)NCc2cccs2)cc1)S(=O)(=O)c1ccccc1` gave an AC50 under setting [1] of less than 0.6 µM. As for `CCOc1ccc(OCc2cccc(C(=O)O)c2)cc1`, the AC50 is > 100 µM (inactive). `CCC(=O)Nc1sc(Cc2ccc3c(c2)OCO3)c(C)c1C(N)=O`: the AC50 was > 100 µM (inactive). Moreover, the AC50 under setting [1] came out at 51.4 µM. On the same counts, the results for `NC(=O)c1nsc(C(=O)N(c2ccccc2F)C(C(=O)NCc2ccc(F)cc2)c2ccc(O)cc2)c1N` (stereo not drawn) are > 100 µM (inactive) and 47 µM. For `CCCCC(=O)N1CCN(c2nc3ccc(Br)cc3s2)CC1` the same measures were > 100 µM (inactive) and 31 µM. The compound `COc1cccc(NC(=O)C(c2ccccc2)N2CCN(c3ccccn3)CC2)c1` (stereo not drawn) displayed an AC50 under setting [1] greater than 100 µM. As to `CN1CCN(C(=O)c2cc3sc4ccccc4c3s2)CC1`, the AC50 was > 100 µM (inactive).

On to `O=S1(=O)c2ccc(Br)cc2OCCC2CCCCN21` (stereo not drawn), for which the AC50 was > 100 µM (inactive). The compound also registered a half-maximal activity concentration (AC50) under setting [1] greater than 100 µM. For the compound `CC(C)CC#Cc1ccc2c(c1)O[C@@H](CN(C)Cc1ccccn1)[C@H](C)CN([C@H](C)CO)S2(=O)=O`, the AC50 was > 100 µM (inactive). Turning to `COCC#Cc1ccc2c(c1)O[C@@H](CN(C)S(=O)(=O)c1cccc(F)c1)[C@@H](C)CN([C@H](C)CO)S2(=O)=O`, under setting [1], the AC50 was 51.3 µM. Regarding `Clc1ccccc1-c1nnc2sc(CCc3ccccc3)nn12`, the AC50 was > 100 µM (inactive). The compound further registered a concentration at half-maximal activity (AC50) under setting [1] of 15.4 µM. Turning to `COc1ccc(NC(=O)c2oc3ccccc3c2NC(=O)C2CCCO2)cc1OC` (stereo not drawn), the AC50 is > 100 µM (inactive).

`CCOCCCNC(=O)C(NC(=O)c1ccccc1O)c1ccc(C)cc1` (stereo not drawn) returned an AC50 under setting [1] greater than 100 µM. With `O=C1c2ccccc2C(c2nnnn2Cc2ccccc2)N1Cc1cccc(F)c1` (stereo not drawn), the half-maximal activity concentration (AC50) under setting [1] was greater than 100 µM. The same measure, in the same setting: as for `O=C(CC1C(=O)N(c2ccc(Cl)cc2)C(=S)N1CCc1ccncc1)Nc1ccc(F)cc1` (stereo not drawn), the figure is 36.4 µM; as for `O=C1CCCN1CCCNc1ncnc2c1[nH]c1ccc(Cl)cc12`, 40.5 µM. Take `N#CCC(=O)Nc1ccc(C(=O)OCC(=O)Nc2ccc3ccccc3c2)cc1`: the AC50 is > 100 µM (inactive). On the same count and under the same terms, as for `Cc1cccc(OCCC(=O)N(C)CC(=O)Nc2cccc3ccccc23)c1`, the figure is > 100 µM (inactive); as for `O=C(COC(=O)C12CC3CC(CC(O)(C3)C1)C2)NCCc1ccc(Cl)cc1`, > 100 µM (inactive). For the compound `COc1ccc(CCNc2nc(-c3ccncc3)cs2)cc1OC`, the AC50 is > 100 µM (inactive). Under setting [1], `S=C1SCN(Cc2cccnc2)CN1Cc1cccnc1` returned an AC50 greater than 100 µM. With `COc1ccccc1CC(=O)NCCc1c[nH]c2ccccc12`, the AC50 was > 100 µM (inactive). `CN(CCOc1ccccc1)S(=O)(=O)c1ccccc1C#N` displayed an AC50 under setting [1] greater than 100 µM. On the same count and under the same terms, the result for `COc1cc2cc(C(=O)Nc3ccc4c(c3)OCCO4)[nH]c2cc1OC` reads greater than 100 µM. Take `CCN(CC)S(=O)(=O)c1ccc(O)c(C(=O)OCC(=O)NC23CC4CC(CC(C4)C2)C3)c1`: the AC50 was > 100 µM (inactive). This compound yielded an AC50 under setting [1] greater than 100 µM. As for `O=C(O)c1ccc(Oc2ccc([N+](=O)[O-])cc2)c([N+](=O)[O-])c1`, the AC50 is > 100 µM (inactive). For the compound `CCN(CC)CCN(C(=O)c1ccc2c(c1)OCCO2)c1nc2cc(C)cc(C)c2s1`, the AC50 was > 100 µM (inactive). `COc1cccc(NC2=Nc3cccc4cccc2c34)c1` returned a half-maximal activity concentration (AC50) under setting [1] greater than 100 µM. For `CCCCNC(=O)c1cc2c(C)cc(C)cc2[nH]1`, the AC50 was > 100 µM (inactive). `COc1cccc(OC)c1CNC(=O)CCSCc1ccccc1F` yielded an AC50 under setting [1] greater than 100 µM.

Under setting [1], `CSc1ccccc1OCc1cc(C(=O)N(C)Cc2nonc2C)no1` had an AC50 greater than 100 µM. `COc1cccc(OCCNS(=O)(=O)c2ccccc2[N+](=O)[O-])c1`: the AC50 was > 100 µM (inactive). On the same count and under the same terms, the result for `Cc1cc(Br)ccc1SCC(=O)OCC(=O)NCc1ccco1` reads > 100 µM (inactive). On the same count and under the same terms, the result for `COc1ccc(-c2cn3c(C)c(C(=O)Nc4cccc(C)n4)sc3n2)cc1` reads > 100 µM (inactive).

Turning to `Cc1cccc(C)c1OCc1n[nH]c(=S)n1-c1ccccc1`, the AC50 was > 100 µM (inactive). The compound also came in with an AC50 under setting [1] of 44.8 µM. As to `Cc1cc(NC(=O)CSc2nccn2-c2cccc(C)c2C)no1`, the AC50 is > 100 µM (inactive). For the same compound, under setting [1], the AC50 was greater than 100 µM.

Take `O=C(NCCc1ccccc1)c1ccc2c(c1)S(=O)(=O)c1ccccc1C2=O`: the AC50 is > 100 µM (inactive). In addition, under setting [1], the half-maximal activity concentration (AC50) is 41.5 µM. For the compound `O=C(Nc1cscc1S(=O)(=O)c1ccccc1)c1ccccc1Cl`, the AC50 is > 100 µM (inactive). For the compound `Cc1onc(-c2c(F)cccc2Cl)c1C(=O)c1ccccc1O`, the AC50 under setting [1] is 42.4 µM. Turning to `Cc1c(C(=O)NCCSCc2cccc(C(F)(F)F)c2)cnn1-c1ccc(F)cc1`, the AC50 was > 100 µM (inactive). The compound also registered an AC50 under setting [1] of 17.4 µM. For `CC1Cc2ccccc2N1C(=O)CN1C(=O)NC(C)(CCc2ccccc2)C1=O` (stereo not drawn), the concentration at half-maximal activity (AC50) under setting [1] is greater than 100 µM.

For the compound `CCN(CC)S(=O)(=O)c1cc(NS(=O)(=O)c2cccc(Cl)c2Cl)ccc1C`, the AC50 was > 100 µM (inactive). Besides, the AC50 under setting [1] amounted to 33.4 µM.

With `CCN(c1ccccc1)S(=O)(=O)c1ccc(OC)c(OC)c1`, the AC50 is > 100 µM (inactive). The same compound displayed a half-maximal activity concentration (AC50) under setting [1] greater than 100 µM. `O=C(Nc1cccnc1)c1ccc([N+](=O)[O-])o1`: the AC50 was > 100 µM (inactive). For the compound `Cc1ccc(S(=O)(=O)NC(C)C(=O)NCc2ccc(Cl)cc2)cc1` (stereo not drawn), the AC50 was > 100 µM (inactive). The compound further came in with a half-maximal activity concentration (AC50) under setting [1] greater than 100 µM. As to `O=C(CC(=O)c1cccs1)c1ccncc1`, the AC50 is > 100 µM (inactive).

Consider `O=C(Nc1ccc2c(c1)OCO2)c1ccc([N+](=O)[O-])cc1[N+](=O)[O-]`, for which the AC50 was > 100 µM (inactive). Turning to `Cc1ccccc1-n1ncc2c(SCC(=O)N3c4ccccc4CC3C)ncnc21` (stereo not drawn), the AC50 was > 100 µM (inactive). On to `O=C(NCCCN1CCOCC1)c1sc2cc([N+](=O)[O-])ccc2c1Cl`, for which the AC50 was > 100 µM (inactive). For the compound `O=C(c1ccccc1)c1ccc2nc(-c3ccc(NC(=O)c4ccccc4Br)cc3)[nH]c2c1`, the AC50 was > 100 µM (inactive). For the same compound, the AC50 under setting [1] is greater than 100 µM. For the compound `CCCCSc1nc(N)c(C#N)c(-c2cccs2)c1C#N`, the AC50 is > 100 µM (inactive). In the case of `Cc1cccc(CN2C(=O)c3ccccc3Sc3ccc(C(=O)O)cc32)c1`, the AC50 was > 100 µM (inactive). On to `C[C@@H]1CN([C@@H](C)CO)C(=O)CCCn2nncc2CO[C@H]1CN(C)C(=O)Nc1ccc(C(F)(F)F)cc1`, for which the AC50 is > 100 µM (inactive).

For the compound `COc1ccc(NS(=O)(=O)c2ccc(NC(=O)c3ccccc3Br)cc2)nn1`, the AC50 is > 100 µM (inactive).

As a reminder, the AC50 is the concentration at which the activity in the assay is half-maximal.
